Reference: patent EP0869784B1, “INHIBITION OF FATTY ACID SYNTHASE AS A MEANS TO REDUCE ADIPOCYTE MASS” (THE JOHNS HOPKINS UNIVERSITY, priority 1995, dated 1997)

What was measured:
[1] = test system: hepatic fatty acid synthesis; assay: In vivo metabolic labeling with [U-3H]-acetate, liver fatty acid synthesis; set-up: species or system mice
Description: (§1) Fatty acid synthesis was measured using metabolic labeling in vivo with [U-^3H]-acetate as described in Pizer, et al., 1996, Cancer Res., 56:1189-1193.
Thus, the reversible cerulenin-induced weight loss may be the result of fatty acid synthesis inhibition as well as decreased appetite in the mice.
(§2) HL60 cells were labeled with [U^14C]-acetate in the presence of 10 µg/ml C-75; cells were incubated in 5% CO2 at 37°C. Results are plotted in Figure 3; each time point was performed in triplicate, error bars are the standard deviation.

[2] = Half life of the drug in ascites; set-up: species or system mice; settings: mouse, in vivo, ip
[3] = Cerulenin-induced weight loss in athymic nude mice (Example 2), with necropsy from a parallel experiment; assay type: in vivo
Description: Athymic mice received 60 mg/kg cerulenin i.p. in 25% DMSO/saline or vehicle alone each day for 1 week. The animal weights were recorded every two days up to day 15. Average animal weight for both groups of mice is plotted against treatment day in Figure 1. Error bars represent standard error of the mean. […] In addition there was a 28% reduction of feces mass in the cerulenin-treated group consistent with deceased food intake.

[4] = Cerulenin-induced weight loss in nude mice with OVCAR-3 xenografts (Example 3); assay type: in vivo, Athymic mice; settings: 80 mg/kg i.p. for 1 week
Description: Cerulenin was administered as described in Example 2 above to mice which received 10^7 OVCAR-3 human ovarian cancer cells. Athymic mice received 0.1 ml of packed NIH-OVCAR-3 cells (approximately […]) intraperitoneally on treatment day 0. Beginning on day 1, treated mice received 80 mg/kg cerulenin i.p. in 25% DMSO/saline for 1 week, while untreated mice received vehicle alone. […] Weight loss constitutes the major toxicity observed during fatty acid synthesis inhibition therapy with cerlenin; the mice regained inception body mass within 10 days following treatment.

[5] = test system: OVCAR-3 ascites tumor fatty acid synthesis; assay: In vivo metabolic labeling with [U-3H]-acetate, tumor fatty acid synthesis; set-up: species or system mice
Description: as §1

[6] = test system: HL60 human promyelocytic leukemia cells; assay: [U14C]-acetate incorporation by HL60 cells; assay type: cell-based; settings: 10 µg/ml, time dependent, Figure 3
Description: as §2

OVCAR-3 cells = assay: Survival of nude mice inoculated with OVCAR-3 cells (Examples 8 and 9); assay type: in vivo
Description: (§3) 20 nude mice (Harland) mice were inoculated on Day 0 with 0.1 ml packed OVCAR-3 cells. 10 mice received transisomer of C-75 (20 mg/kg) in 100 ul RPMI on days 1, 3, and 5. 10 mice received 100 ul of RPMI i.p. alone on days 1, 3, and 5. Animals were weighed on days indicated on Figure 6. Animals were sacrificed when 30% increase in body weight occurred from tumor growth.
(§4) This indicates a dose response to the anti-tumor effect of C-75.

FAS = FAS (Homo sapiens, UniProt P49327); assay: FAS activity in hypotonic lysate of OVCAR-3 ascites cells (malonyl-CoA dependent oxidation of NADPH at 340 nm); assay type: biochemical
Excerpt: Compounds which inhibit FAS can be identified by testing the ability of a compound to inhibit fatty acid synthase activity using purified enzyme. Fatty acid synthase activity can be measured spectrophotometrically based on the oxidation of NADPH, or radioactively by measuring the incorporation of radiolabeled acetyl- or malonyl-CoA. (Dils, et al, Methods Enzymol, 35:74-83). FAS inhibitors are exemplified in U.S. patent application 08/188,425 and International patent publication WO 94/02108, both of which are incorporated herein by reference.

[7] = C-75-induced weight loss in nude mice inoculated with OVCAR-3 cells (Examples 8 and 9); assay type: in vivo
Description: as §3, §4

[8] = test system: HL60 human promyelocytic leukemia cells; assay: HL60 viable cell count with or without palmitate (fatty acid rescue); assay type: cell-based; settings: 2.5 ug/ml; palmitate 80 micromolar; viable cells by trypan blue exclusion, Figure 5
Description: Suitable FAS inhibitors may be identified by a simple test exemplified in Example 7, and in U.S. patent application 08/188,425. Generally, this test uses a tumor cell line in which an FAS inhibitor, typically cerulenin, is cytotoxic. Such cell lines include SKBR-3, ZR-75-1, and preferably HL60. Suitable FAS inhibitors will inhibit growth of such cell lines, but the cells are rescued by exogenous supply of the product of the FAS enzyme (fatty acid). When cell growth is measured in the presence and absence of exogenous fatty acid (e.g., palmitate or oleate), inhibition by specific FAS inhibitors is relieved by the fatty acid.
200,000 HL60 cells were plated in 24-well plates in 1 ml fatty acid free medium with or without palmitate (80 micromolar, complexed to fatty acid free albumin 0.2:1). Cells were treated with 2.5 ug/ml of C-75. Cells were incubated in 5% CO2 at 37°C and viable cells were counted with trypan blue exclusion at 24, […], 72, and 96 hours. Results are plotted in Figure 5; each time point was performed in triplicate, error bars are the standard deviation. […] Note that palmitate alone causes some suppression of HL60 proliferation.

[9] = C-75-induced weight loss in OVCAR-3 xenograft mice, pilot study (Example 6); assay type: in vivo; settings: 60 mg/kg on days 1, 3, and 5
Description: C-75 was tested in vivo in a pilot study against the OVCAR-3 xenograft model of Example 4. Ten mice were inoculated intraperitoneally with 10^7 OVCAR-3 cells. The mice were treated on days 1, 3, and 5 with either DMSO or 60 mg/kg C-75. Results are plotted in Figure 4. C-75 treated mice experienced a 20% reduction in weight loss by day eight. Animals regained their original weight by day 15, increased their weight to nearly 110% of original body weight by day 24, and achieved original body weight by day 34.

[10] = 60 mg/kg i.p. each day for 1 week

FAS, sequence (P49327 whole entry): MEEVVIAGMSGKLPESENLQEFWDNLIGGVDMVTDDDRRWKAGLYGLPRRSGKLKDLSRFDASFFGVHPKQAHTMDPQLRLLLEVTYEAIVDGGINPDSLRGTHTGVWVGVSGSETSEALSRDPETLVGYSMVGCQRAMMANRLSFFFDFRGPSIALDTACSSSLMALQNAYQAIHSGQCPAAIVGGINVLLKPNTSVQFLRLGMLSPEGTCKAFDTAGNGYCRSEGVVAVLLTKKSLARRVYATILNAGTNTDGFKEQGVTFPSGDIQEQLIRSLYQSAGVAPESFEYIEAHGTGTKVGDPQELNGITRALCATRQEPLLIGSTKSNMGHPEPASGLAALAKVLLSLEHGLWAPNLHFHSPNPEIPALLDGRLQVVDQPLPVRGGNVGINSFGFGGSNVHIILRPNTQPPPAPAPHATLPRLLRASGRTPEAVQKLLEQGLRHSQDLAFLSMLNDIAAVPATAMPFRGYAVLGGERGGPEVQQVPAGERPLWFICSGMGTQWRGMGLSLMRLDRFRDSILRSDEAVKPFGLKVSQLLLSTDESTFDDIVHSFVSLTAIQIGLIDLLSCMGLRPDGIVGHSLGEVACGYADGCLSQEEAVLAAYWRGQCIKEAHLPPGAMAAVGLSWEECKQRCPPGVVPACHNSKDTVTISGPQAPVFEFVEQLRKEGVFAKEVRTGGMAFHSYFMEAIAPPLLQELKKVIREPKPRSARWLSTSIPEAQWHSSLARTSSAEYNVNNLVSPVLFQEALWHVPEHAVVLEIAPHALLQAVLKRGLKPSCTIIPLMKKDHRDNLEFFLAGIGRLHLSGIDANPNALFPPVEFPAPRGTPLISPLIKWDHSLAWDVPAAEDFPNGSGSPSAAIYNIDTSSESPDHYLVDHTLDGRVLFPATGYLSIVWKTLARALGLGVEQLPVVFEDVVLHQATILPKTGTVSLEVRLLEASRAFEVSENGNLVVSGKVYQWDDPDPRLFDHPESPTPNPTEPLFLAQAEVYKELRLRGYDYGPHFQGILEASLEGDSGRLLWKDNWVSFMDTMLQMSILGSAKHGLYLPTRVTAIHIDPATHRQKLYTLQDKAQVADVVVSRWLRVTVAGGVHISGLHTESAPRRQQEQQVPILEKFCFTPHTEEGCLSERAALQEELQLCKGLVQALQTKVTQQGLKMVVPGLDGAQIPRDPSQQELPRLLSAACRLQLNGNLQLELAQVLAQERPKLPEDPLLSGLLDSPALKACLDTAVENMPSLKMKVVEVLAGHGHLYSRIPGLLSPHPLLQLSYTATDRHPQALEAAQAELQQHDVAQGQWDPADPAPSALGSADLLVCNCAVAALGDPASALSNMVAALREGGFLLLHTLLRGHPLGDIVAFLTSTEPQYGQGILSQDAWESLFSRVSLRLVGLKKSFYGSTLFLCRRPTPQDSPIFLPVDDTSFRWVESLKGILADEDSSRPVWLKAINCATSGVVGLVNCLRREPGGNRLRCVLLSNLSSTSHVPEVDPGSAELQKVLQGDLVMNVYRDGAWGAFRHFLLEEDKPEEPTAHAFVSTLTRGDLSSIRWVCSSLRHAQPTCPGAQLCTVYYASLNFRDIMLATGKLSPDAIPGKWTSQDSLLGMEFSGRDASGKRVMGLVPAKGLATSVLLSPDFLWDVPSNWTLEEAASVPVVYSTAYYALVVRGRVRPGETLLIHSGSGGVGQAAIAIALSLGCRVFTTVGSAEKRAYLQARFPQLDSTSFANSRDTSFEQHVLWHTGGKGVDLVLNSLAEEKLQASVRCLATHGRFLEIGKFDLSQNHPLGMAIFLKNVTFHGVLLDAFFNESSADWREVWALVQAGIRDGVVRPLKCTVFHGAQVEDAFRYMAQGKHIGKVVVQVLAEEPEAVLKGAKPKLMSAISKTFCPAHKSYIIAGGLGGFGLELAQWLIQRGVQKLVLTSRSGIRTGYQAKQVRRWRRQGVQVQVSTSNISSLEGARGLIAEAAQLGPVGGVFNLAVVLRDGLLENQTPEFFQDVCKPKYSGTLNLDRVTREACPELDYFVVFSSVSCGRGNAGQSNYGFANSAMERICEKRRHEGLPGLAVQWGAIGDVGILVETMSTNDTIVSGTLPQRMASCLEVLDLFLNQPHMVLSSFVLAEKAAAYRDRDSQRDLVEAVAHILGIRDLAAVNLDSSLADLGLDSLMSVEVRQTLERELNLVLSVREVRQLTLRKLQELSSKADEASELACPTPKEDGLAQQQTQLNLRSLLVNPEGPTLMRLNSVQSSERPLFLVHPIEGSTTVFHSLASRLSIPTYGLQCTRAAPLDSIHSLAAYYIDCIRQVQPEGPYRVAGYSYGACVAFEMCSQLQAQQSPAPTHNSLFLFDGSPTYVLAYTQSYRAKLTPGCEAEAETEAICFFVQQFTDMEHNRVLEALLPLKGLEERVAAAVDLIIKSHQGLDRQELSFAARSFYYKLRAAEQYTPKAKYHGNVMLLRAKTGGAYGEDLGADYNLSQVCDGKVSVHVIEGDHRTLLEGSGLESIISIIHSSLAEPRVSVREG

C/C=C/C/C=C/CCC(=O)[C@H]1O[C@H]1C(N)=O [cerulenin]
effect on mean hepatic fatty acid synthesis ([1]; mice with OVCAR-3 ascites tumor, intraperitoneal administration): no effect | inhibition of fatty acid synthesis in liver ([1]; mice without tumor, parallel experiments): ~50% | half-life [2]: < 15 min | Water intake [3, 10]: not appreciable altered | reduction of feces mass [3, 10]: 28% | weight relative to original weight ([3]; 60 mg/kg i.p. each day for 1 week, by day 14): 96% | average loss of weight ([3]; 60 mg/kg i.p. each day for 1 week, by day eight): 28% | Observation of the mice (activity) ([3]; during the period of maximal weight loss): normal activity | Liver, microscopically ([3]; necropsy, parallel experiment): unremarkable without necrosis or inflammation | muscle mass, histologically ([3]; necropsy, parallel experiment): no decrease in muscle mass was detected histologically | Necropsy: fat deposits ([3]; parallel experiment): markedly decreased subcutaneous fat and abdominal fat deposits | time to regain inception body mass following treatment [4]: ≤ 10 days | urinalysis, diabetogenic effect [4]: failed to demonstrate any diabetogenic effect | mean weight loss of original body mass ([4]; during the treatment period): 25% | inhibition with high dose over standard dose ([5]; high dose 6mg/mouse versus standard dose 2mg/mouse): No augmentation of inhibition | reduction of OVCAR-3 ascites tumor fatty acid synthesis ([5]; intraperitoneal administration as in Example 3): 43%

C=C1C(=O)O[C@@H](CCCCCCCC)[C@@H]1C(=O)O (relative stereo) [Example C-75, trans-Tetrahydro-3-methylene-2-oxo-5-n-octyl-4-furancarboxylic acid]
reduction of [U-3H] acetate incorporation into fatty acids in mouse liver ([1]; pilot in vivo metabolic labeling studies): 30% | reduction in fatty acid synthesis (label incorporation into phospholipids) [6]: nearly a three-fold reduction | survival of the xenograft (OVCAR-3 cells; 20 mg/kg on days 1, 3, and 5, p=0.001 Wilcoxon and Mantel): increased survival | survival (OVCAR-3 cells; only one dose, wilcoxon p=0.56, Mantel p=0.52): trend showing increased survival, but it was not statistically significant | reduction of FAS activity compared to control lysate (FAS; 50 µg/ml, 37 °C, 180 min): 3 fold | FAS activity (FAS; 50 µg/ml, 37 °C, 180 min, control 5.6): 1.8 nM NADPH oxidized/min | effect of incubation at 4° (FAS; incubation at 4°): abolishes the inhibitory effect | weight loss in mice ([7]; 20 mg/kg on days 1, 3, and 5, Figure 6): causes weight loss | average maximum weight loss ([7]; only one dose, on day 3): about 3 grams | rescue from growth inhibition by exogenous fatty acid [8]: palmitate rescues HL60 cells from C-75 | day by which original body weight was achieved again after the increase [9]: ≤ 34 days | day by which original weight was regained [9]: ≤ 15 days | weight relative to original body weight ([9]; by day 24): ~110% | body weight loss ([9]; by day eight): 20%
